Molecular target: Acetyl-CoA carboxylase 2 (Homo sapiens, UniProt O00763)
Assay: Spectrophotometric 384 Well Assay: Malonyl CoA formation by acetyl CoA carboxylases is stoichometrically linked to the consumption of ATP. ACC2 activity is measured in a NADH-linked kinetic method measuring ADP generated during the ACC reaction using a coupled lactate dehydrogenase/pyruvate kinase reaction.For biological testing, a human ACC2 construct which lacks the 128 amino acids at the N-terminus for increased solubility (nt 385-6966 in Genbank entry AJ575592) is cloned. The protein is then expressed in insect cells using a baculoviral expression system. Protein purification is performed by anion exchange.All compounds are dissolved in dimethyl sulfoxide (DMSO) to a concentration of 10 mM.Assay reactions are then carried out in 384-well plates, with hACC2 in an appropriate dilution and at final assay concentrations (f.c.) of 100 mM Tris (pH 7.5), 10 mM trisodium citrate, 25 mM KHCO3, 10 mM MgCl2, 0.5 mg/mL BSA, 3.75 mM reduced L-glutathione, 15 U/mL lactate dehydrogenase, 0.5 mM phosphoenolpyruvate.

Acetyl-CoA carboxylase 2, sequence (O00763 whole entry): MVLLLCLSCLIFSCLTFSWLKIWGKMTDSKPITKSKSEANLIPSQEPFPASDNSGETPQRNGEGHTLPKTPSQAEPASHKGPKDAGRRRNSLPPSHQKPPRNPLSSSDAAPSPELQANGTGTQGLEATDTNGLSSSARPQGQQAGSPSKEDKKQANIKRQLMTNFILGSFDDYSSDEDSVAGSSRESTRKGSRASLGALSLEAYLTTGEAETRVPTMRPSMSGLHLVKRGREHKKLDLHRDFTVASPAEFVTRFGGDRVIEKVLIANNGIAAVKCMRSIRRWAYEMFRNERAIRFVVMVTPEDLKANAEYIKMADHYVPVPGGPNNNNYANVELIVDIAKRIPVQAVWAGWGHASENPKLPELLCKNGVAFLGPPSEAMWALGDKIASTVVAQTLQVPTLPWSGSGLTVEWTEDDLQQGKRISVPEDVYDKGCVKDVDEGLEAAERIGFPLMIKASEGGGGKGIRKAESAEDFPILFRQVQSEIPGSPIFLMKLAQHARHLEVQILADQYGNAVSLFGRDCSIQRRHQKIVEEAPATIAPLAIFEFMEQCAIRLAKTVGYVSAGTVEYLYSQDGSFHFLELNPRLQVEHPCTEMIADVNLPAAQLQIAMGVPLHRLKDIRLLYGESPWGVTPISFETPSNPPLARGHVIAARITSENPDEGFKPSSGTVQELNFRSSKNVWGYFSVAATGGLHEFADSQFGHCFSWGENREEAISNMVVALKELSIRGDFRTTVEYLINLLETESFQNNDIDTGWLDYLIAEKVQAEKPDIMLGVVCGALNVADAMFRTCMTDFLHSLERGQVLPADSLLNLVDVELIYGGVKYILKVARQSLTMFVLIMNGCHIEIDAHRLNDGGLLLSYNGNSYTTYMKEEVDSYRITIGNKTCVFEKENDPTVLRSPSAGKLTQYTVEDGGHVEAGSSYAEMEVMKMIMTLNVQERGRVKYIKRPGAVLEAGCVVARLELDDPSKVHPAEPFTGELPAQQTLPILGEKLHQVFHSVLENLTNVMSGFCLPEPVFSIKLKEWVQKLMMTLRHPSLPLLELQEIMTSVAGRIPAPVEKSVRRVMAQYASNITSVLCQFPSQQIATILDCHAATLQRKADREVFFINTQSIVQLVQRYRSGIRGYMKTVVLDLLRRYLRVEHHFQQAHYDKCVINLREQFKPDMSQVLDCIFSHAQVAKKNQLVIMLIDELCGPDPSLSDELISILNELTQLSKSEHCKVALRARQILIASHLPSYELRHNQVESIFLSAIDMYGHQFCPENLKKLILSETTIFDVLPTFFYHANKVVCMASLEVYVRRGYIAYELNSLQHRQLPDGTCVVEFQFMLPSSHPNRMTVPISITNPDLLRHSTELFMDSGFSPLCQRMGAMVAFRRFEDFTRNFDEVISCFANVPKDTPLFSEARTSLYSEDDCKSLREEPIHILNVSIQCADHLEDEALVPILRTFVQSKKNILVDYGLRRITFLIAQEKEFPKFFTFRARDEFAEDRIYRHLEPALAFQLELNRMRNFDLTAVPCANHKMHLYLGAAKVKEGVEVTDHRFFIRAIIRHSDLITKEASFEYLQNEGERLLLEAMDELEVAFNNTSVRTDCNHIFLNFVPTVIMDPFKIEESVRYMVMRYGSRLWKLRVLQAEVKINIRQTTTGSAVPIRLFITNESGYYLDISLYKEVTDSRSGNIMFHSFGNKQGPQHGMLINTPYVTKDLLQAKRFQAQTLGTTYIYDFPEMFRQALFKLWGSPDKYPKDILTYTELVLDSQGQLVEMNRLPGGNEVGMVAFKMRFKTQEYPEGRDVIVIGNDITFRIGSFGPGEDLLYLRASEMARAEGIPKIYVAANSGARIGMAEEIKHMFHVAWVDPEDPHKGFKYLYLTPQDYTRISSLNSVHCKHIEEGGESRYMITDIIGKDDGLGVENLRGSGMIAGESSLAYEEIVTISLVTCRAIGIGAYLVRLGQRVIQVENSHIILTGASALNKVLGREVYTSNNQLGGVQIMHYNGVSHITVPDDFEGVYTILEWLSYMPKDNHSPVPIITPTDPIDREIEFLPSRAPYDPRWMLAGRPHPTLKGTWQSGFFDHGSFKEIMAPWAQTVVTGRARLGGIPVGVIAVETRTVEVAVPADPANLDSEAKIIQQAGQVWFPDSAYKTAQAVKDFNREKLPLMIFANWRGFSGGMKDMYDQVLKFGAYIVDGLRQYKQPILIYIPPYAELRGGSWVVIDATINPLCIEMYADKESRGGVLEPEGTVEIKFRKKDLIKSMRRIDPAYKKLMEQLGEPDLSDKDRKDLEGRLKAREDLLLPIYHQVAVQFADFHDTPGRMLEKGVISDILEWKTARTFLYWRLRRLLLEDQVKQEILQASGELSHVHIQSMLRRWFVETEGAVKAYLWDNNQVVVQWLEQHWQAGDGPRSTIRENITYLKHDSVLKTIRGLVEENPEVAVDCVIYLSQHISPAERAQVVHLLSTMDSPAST

| Structure (SMILES) | IC50 [µM] |
| --- | --- |
| CCOc1ccc(C#Cc2ccc(CC(C)NC(=O)CC3CC3)cc2)cc1 (centres undefined) | 0.79 |
| CC(=O)NC(C)Cc1ccc(C#Cc2ccc(C(=O)NCC(C)C)cc2)cc1 (centres undefined) | 4.2 |
| CC(=O)NC(C)Cc1ccc(C#Cc2cccc(C(=O)N3CCC3)c2)cc1 (centres undefined) | 2.1 |
| CC(=O)NC(C)Cc1ccc(C#Cc2ccnc(NCC(F)F)n2)cc1 (centres undefined) | 9.9 |
